Reference: ChEMBL document CHEMBL3988442, “University of Dundee, Small-Polar-MMV Screening Library” (2021)

Legend:
[1] = microbe, parasite or virus in culture; conditions: Mycobacterium tuberculosis, 96 h, read-out: pIC50 (converted)
[2] = microbe, parasite or virus in culture; conditions: Mycobacterium tuberculosis, 72 h, read-out: pIC50 (converted)

SMILES | IC50 [1] [µM] | IC50 [2] [µM]
O=C(CSc1ncccc1Br)N1CCCC1 | 70.3 | 5.62
Cc1nc(CNCC2COCc3c(-c4ccoc4)nnn3C2)cs1 (configuration not stated) | > 50.1 | > 50.1
COCCCNC(=O)c1ccn(-c2ccc(F)cc2)n1 | 154 | 114
CCCn1nnc(NCc2ccc(OC)cc2)n1 | 25.1 | 115
Cc1ccccc1N1C(=O)C=CC1=O | 254 | 157
O=C(NCCSC(F)(F)F)Nc1cccc2[nH]nnc12 | 265 | 286
O=C(CC1COc2ccccc2O1)N1CCOCC1 (configuration not stated) | 64 | 74.9
COc1cccc(-c2cnn(CCC(N)=O)c2)c1F | > 501 | 355
CC(C)CN1C(=O)C(N)c2ccccc21 (configuration not stated) | > 501 | > 501
NC(=O)C1(c2cnccn2)CCCN1C(=O)Cc1ccsc1 (configuration not stated) | > 50.1 | > 50.1
CC(C)c1noc(CN2CCN(C(=O)c3ccc(F)cc3)CC2)n1 | > 50.1 | > 50.1
COc1ccnc(CN2CCCC(CCc3ccc(F)cc3)C2)c1OC (configuration not stated) | 20.9 | 34.7
Cc1cnc(C(=O)NCCCc2ccccn2)cn1 | > 501 | 111
CCOC(=O)CNc1ccc(OC)cc1 | 335 | 124
CCCC(=O)N(CCCN1CCOCC1)c1nc2c(C)ccc(Cl)c2s1 | 19.2 | 12.8
COc1cc(CCC(=O)N2CCC(c3cc4nccnc4[nH]3)CC2)on1 | > 50.1 | 30.7
FC(F)(F)Sc1ccccc1NCc1nc(C2CC2)no1 | > 50.1 | 15.7
Cc1cc(NCC2CCS(=O)(=O)C2)n2nc(C)cc2n1 (configuration not stated) | > 50.1 | > 50.1
CC(C)Oc1ccc(CSc2nnc(CN3CCCC3=O)o2)cc1 | 14.5 | 43.5
Cc1nc2c(c(NCc3nc4ccccc4s3)n1)CCNCC2 | 45.8 | 23.7
NCCc1cccc2cc[nH]c12 | 211 | 177

SMILES | IC50 [1] [µM] | IC50 [2] [µM]
CCC(CO)(CO)NCc1csc(-c2cccs2)n1 | > 501 | > 501
CCN1CCN(c2ccccc2O)CC1 | 189 | 210
CC(=O)NCCCNCc1ccc(Br)c2cccnc12 | > 501 | 278
COC(=O)C(O)CNc1ccc(C(F)(F)F)cn1 (configuration not stated) | > 501 | > 501
C=Cc1ccc(C(=O)N2CCCC(Nc3ccc(F)c(F)c3)C2)cc1 (configuration not stated) | 40.8 | > 50.1
Fc1ccc(N2CCCN(c3ccc(Cn4ccnc4)cn3)CC2)cc1 | 43.5 | 29.6
COc1ccc(S(=O)(=O)Nc2cccc(CN)c2)cc1 | > 501 | 162
O=C(NCCc1c[nH]c2ccc(F)cc12)C1(n2cnnn2)CCCCC1 | 28 | 46.3
COCc1nn(Cc2csc(C(C)C)n2)c(=O)o1 | 22.5 | 14.9
COc1ccnc(CN2CCCC2CSC)c1OC (configuration not stated) | > 501 | 180
O=c1c2cc3c(cc2nnn1Cc1ccccc1Cl)OCCO3 | > 50.1 | > 50.1
CCc1nc(C2CCCN(C(=O)c3ccccc3Cl)C2)no1 (configuration not stated) | > 50.1 | 23.9
COC(=O)COn1c(SC(C)C)nc2ccccc2c1=O | > 50.1 | 43.2
O=C(CN(C1=NCCCCC1)c1ccc(Cl)cc1)c1ccccc1 | 22.8 | 20.7
CN(Cc1cccc(F)c1)C(=O)c1cnccn1 | > 501 | > 501
N#CC1(C(=O)NCc2ccccc2F)CC1 | > 501 | > 501
CCc1cc(CN(C)C(=O)c2cnon2)on1 | > 50.1 | > 50.1
CCN1C[C@H](NC(=O)c2ccc(Cl)s2)[C@@H](OC)C1 | > 501 | 137
O=C1NCC2(CCCN(C(=O)c3c[nH]nc3-c3cccs3)C2)O1 (configuration not stated) | > 50.1 | > 50.1
CC1=CCN(C(=O)c2ccsc2)CC1 | > 501 | 160
